Experimental data reported in US6737383B1, “Herbicidal oxadiazolidines” (priority 1999, dated 2004).

Assays:
[1] = test system: rice; assay: Test B flood test rice; type: in vivo, Oryza sativa
Procedure, shortened: (§1)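 Plants were grown to the 2-leaf stage before treatment with test chemical, then held in a greenhouse for twelve to sixteen days. Injury was visually rated against untreated controls on a 0–10 scale, where 0 is no effect and 10 is complete control.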

[2] = test system: smallflower flatsedge; assay: Test B flood test smallflower flatsedge; type: in vivo, Cyperus difformis
Procedure, shortened: as §1

[3] = test system: bedstraw; assay: Test B pre/postemergence bedstraw; type: in vivo, Galium aparine
Procedure, shortened: (§2)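 Response is a visual 0-to-10 score relative to untreated plants, where 0 means no effect and 10 means complete control, taken twelve to sixteen days after application. Treatments went onto soil at planting and onto foliage of 1- to 4-leaf plants, using a surfactant-containing non-phytotoxic solvent.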

[4] = test system: cocklebur; assay: Test B pre/postemergence cocklebur; type: in vivo, Xanthium strumarium
Procedure, shortened: as §2

[5] = test system: velvetleaf; assay: Test B pre/postemergence velvetleaf; type: in vivo, Abutilon theophrasti
Procedure, shortened: as §2

[6] = test system: soybean; assay: Test B pre/postemergence soybean; type: in vivo, Glycine max
Procedure, shortened: as §2

[7] = test system: bamyardgrass; assay: Test B flood test barnyardgrass; type: in vivo, Echinochloa crus-galli
Procedure, shortened: as §1

[8] = test system: morningglory; assay: Test B pre/postemergence morningglory; type: in vivo, Ipomoea hederacea
Procedure, shortened: as §2

[9] = test system: wheat; assay: Test B pre/postemergence wheat; type: in vivo, Triticum aestivum
Procedure, shortened: as §2

[10] = test system: giant foxtail; assay: Test B pre/postemergence giant foxtail; type: in vivo, Setaria faberii
Procedure, shortened: as §2

[11] = test system: pigweed; assay: Test B pre/postemergence pigweed; type: in vivo, Amaranthus retroflexus
Procedure, shortened: as §2

[12] = test system: surinam grass; assay: Test B pre/postemergence surinam grass; type: in vivo, Brachiaria decumbens
Procedure, shortened: as §2

[13] = test system: crabgrass; assay: Test B pre/postemergence crabgrass; type: in vivo, Digitaria sanguinalis
Procedure, shortened: as §2

[14] = test system: purple nutsedge; assay: Test B pre/postemergence purple nutsedge; type: in vivo, Cyperus rotundus
Procedure, shortened: as §2

[15] = test system: wild oat; assay: Test B pre/postemergence wild oat; type: in vivo, Avena fatua
Procedure, shortened: as §2

[16] = test system: blackgrass; assay: Test B pre/postemergence blackgrass; type: in vivo, Alopecurus myosuroides
Procedure, shortened: as §2

[17] = Rate 62 g/ha, flood test species, Pre-emergence, visual evaluation after twelve to sixteen days
[18] = Rate 125 g/ha, under heading Pre-emergence, flood test species, visual evaluation after twelve to sixteen days
[19] = Rate 250 g/ha, Pre-emergence (flood test species), scale 0 to 10, 0 is no effect, 10 is complete control
[20] = Rate 500 g/ha, Pre-emergence section of Table B, 0 to 10 scale (0 no effect, 10 complete control)
[21] = Postemergence, Rate 62 g/ha, scale 0 to 10, 0 is no effect, 10 is complete control
[22] = Postemergence, Rate 250 g/ha, scale of 0 to 10, 0 is no effect, 10 is complete control
[23] = Preemergence, Rate 62 g/ha, scale of 0 to 10 where 0 is no effect and 10 is complete control
[24] = Postemergence, Rate 125 g/ha, scale of 0 to 10 where 0 is no effect and 10 is complete control
[25] = Postemergence, Rate 500 g/ha, scale of 0 to 10 where 0 is no effect and 10 is complete control
[26] = Preemergence, Rate 125 g/ha, scale of 0 to 10 where 0 is no effect and 10 is complete control
[27] = Preemergence, Rate 250 g/ha, scale 0 to 10 (0 no effect, 10 complete control)
[28] = Preemergence, Rate 500 g/ha, scale of 0 to 10 where 0 is no effect and 10 is complete control

CC(C)N(C(=O)n1oc(=O)n(Cc2nnc(Cl)s2)c1=O)c1ccc(F)cc1 [Compound 646]
0: Plant response rating, Rice (0 to 10 scale, 0 is no effect, 10 is complete control) [1, 17] | Rice plant response rating (0 to 10 scale, 0 is no effect, 10 is complete control) [1, 18] | Rice plant response rating [1, 19] | Rice plant response rating [1, 20] | Plant response rating, S. Flatsedge (0 to 10 scale, 0 is no effect, 10 is complete control) [2, 17] | S. Flatsedge plant response rating (0 to 10 scale, 0 is no effect, 10 is complete control) [2, 18] | S. Flatsedge plant response rating [2, 19] | S. Flatsedge plant response rating [2, 20] | Plant response rating, Bedstraw [3, 21] | Bedstraw plant response rating [3, 22] | Bedstraw plant response rating [3, 23] | Plant response rating, Cocklebur [4, 21] | Cocklebur plant response rating [4, 24] | Cocklebur plant response rating [4, 22] | Plant response rating, Cocklebur [4, 25] | Cocklebur plant response rating [4, 23] | Cocklebur plant response rating [4, 26] | Plant response rating, Cocklebur [4, 27] | Plant response rating, Cocklebur [4, 28] | Plant response rating, Velvetleaf [5, 21] | Velvetleaf plant response rating [5, 24] | Velvetleaf plant response rating [5, 23] | Velvetleaf plant response rating [5, 26] | Plant response rating, Velvetleaf [5, 27] | Plant response rating, Velvetleaf [5, 28] | Plant response rating, Soybean [6, 21] | Soybean plant response rating [6, 23] | Soybean plant response rating [6, 26] | Plant response rating, Soybean [6, 27] | Plant response rating, Soybean [6, 28] | Plant response rating, Barnyardgrass (0 to 10 scale, 0 is no effect, 10 is complete control) [7, 17] | Barnyardgrass plant response rating (0 to 10 scale, 0 is no effect, 10 is complete control) [7, 18] | Barnyardgrass plant response rating [7, 19] | Barnyardgrass plant response rating [7, 20] | Plant response rating, Morningglory [8, 21] | Morningglory plant response rating [8, 24] | Morningglory plant response rating [8, 22] | Morningglory plant response rating [8, 23] | Morningglory plant response rating [8, 26] | Plant response rating, Morningglory [8, 27] | Plant response rating, Morningglory [8, 28] | Plant response rating, Wheat [9, 21] | Wheat plant response rating [9, 24] | Wheat plant response rating [9, 23] | Wheat plant response rating [9, 26] | Plant response rating, Wheat [9, 27] | Plant response rating, Wheat [9, 28] | Plant response rating, Giant foxtail [10, 21] | Giant foxtail plant response rating [10, 24] | Giant foxtail plant response rating [10, 22] | Plant response rating, Giant foxtail [10, 25] | Giant foxtail plant response rating [10, 23] | Giant foxtail plant response rating [10, 26] | Plant response rating, Giant foxtail [10, 27] | Plant response rating, Giant foxtail [10, 28] | Plant response rating, Redroot pigweed [11, 21] | Redroot pigweed plant response rating [11, 24] | Redroot pigweed plant response rating [11, 23] | Redroot pigweed plant response rating [11, 26] | Plant response rating, Redroot pigweed [11, 27] | Plant response rating, Redroot pigweed [11, 28] | Plant response rating, B. signalgrass [12, 21] | Plant response rating, B. signalgrass [12, 24] | B. signalgrass plant response rating [12, 22] | Plant response rating, B. signalgrass [12, 25] | B. signalgrass plant response rating [12, 23] | B. signalgrass plant response rating [12, 26] | Plant response rating, B. signalgrass [12, 27] | Plant response rating, B. signalgrass [12, 28] | Plant response rating, Crabgrass [13, 21] | Crabgrass plant response rating [13, 24] | Crabgrass plant response rating [13, 22] | Crabgrass plant response rating [13, 26] | Plant response rating, Crabgrass [13, 27] | Plant response rating, Crabgrass [13, 28] | Plant response rating, Nutsedge [14, 21] | Nutsedge plant response rating [14, 24] | Plant response rating, Nutsedge [14, 25] | Nutsedge plant response rating [14, 23] | Nutsedge plant response rating [14, 26] | Plant response rating, Nutsedge [14, 27] | Plant response rating, Nutsedge [14, 28] | Plant response rating, Wild oats [15, 21] | Wild oats plant response rating [15, 24] | Wild oats plant response rating [15, 23] | Wild oats plant response rating [15, 26] | Plant response rating, Wild oats [15, 27] | Plant response rating, Wild oats [15, 28] | Plant response rating, Blackgrass [16, 21] | Blackgrass plant response rating [16, 24] | Blackgrass plant response rating [16, 22] | Plant response rating, Blackgrass [16, 25] | Blackgrass plant response rating [16, 23] | Blackgrass plant response rating [16, 26] | Plant response rating, Blackgrass [16, 27] | Plant response rating, Blackgrass [16, 28]
1: Soybean plant response rating [6, 24] | Plant response rating, Crabgrass [13, 25]
4: Plant response rating, Morningglory [8, 25]
